The values below come from patent US7935722B2 (Eli Lilly and Company, priority 2005, dated 2011).

pEC50, pKi: −log10 of the molar value. Where two headings read alike, the source gives them in different places.

Data set [1] has as its target T1, human AR (androgen receptor) (Homo sapiens, UniProt P10275).
T1 construct: expressed in transfected cells; host or cells: 293 cells (293-AR lysate)
T1 sequence (P10275 1-920): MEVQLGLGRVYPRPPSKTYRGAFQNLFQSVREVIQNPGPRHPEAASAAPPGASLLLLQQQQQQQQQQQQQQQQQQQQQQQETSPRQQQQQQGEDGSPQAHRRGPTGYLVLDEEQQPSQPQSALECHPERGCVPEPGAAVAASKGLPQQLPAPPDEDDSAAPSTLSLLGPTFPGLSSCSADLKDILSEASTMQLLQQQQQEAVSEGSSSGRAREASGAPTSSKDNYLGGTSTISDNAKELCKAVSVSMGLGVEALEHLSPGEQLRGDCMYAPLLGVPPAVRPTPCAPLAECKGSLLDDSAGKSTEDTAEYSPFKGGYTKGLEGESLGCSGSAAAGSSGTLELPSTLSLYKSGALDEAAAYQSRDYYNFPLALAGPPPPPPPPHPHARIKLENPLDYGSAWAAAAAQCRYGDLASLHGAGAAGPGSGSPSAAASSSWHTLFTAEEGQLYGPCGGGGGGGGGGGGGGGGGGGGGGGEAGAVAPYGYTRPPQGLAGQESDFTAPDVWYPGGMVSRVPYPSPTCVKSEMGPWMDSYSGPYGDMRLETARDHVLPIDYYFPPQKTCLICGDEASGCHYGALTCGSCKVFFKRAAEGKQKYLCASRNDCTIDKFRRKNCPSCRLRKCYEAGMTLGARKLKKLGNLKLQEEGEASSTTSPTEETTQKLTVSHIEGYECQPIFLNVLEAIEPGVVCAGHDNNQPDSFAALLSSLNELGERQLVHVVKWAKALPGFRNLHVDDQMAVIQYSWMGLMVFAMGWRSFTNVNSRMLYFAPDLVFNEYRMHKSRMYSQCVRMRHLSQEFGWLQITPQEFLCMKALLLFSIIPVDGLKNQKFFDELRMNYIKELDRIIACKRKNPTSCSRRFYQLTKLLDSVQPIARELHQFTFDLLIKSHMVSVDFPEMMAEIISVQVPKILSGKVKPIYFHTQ
The experiment in a line: Steroid hormone nuclear receptor binding assay, AR binding. The method, boiled down: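 Competition binding with lysates of 293 cells overexpressing human AR, [3H]-methyltrienolone tracer, compounds from about 0.01 nM to 10 μM, overnight at 4 °C; non-specific binding set with 500 nM methyltrienolone. Bound tracer counted by scintillation after charcoal-dextran separation; IC50 converted to Ki by Cheng-Prusoff using Kd from saturation binding.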

The target in data set [2] is T2, human androgen receptor (AR) (Homo sapiens, UniProt P10275).
T2 construct: expressed in transfected cells; host or cells: mouse myoblast C2C12 cells, transiently co-transfected
T2 sequence (P10275 1-920): T1 sequence (P10275 1-920)
Kind of data set: C2C12 AR/ARE reporter assay. The class given is cell-based. The essentials:
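Mouse C2C12 myoblasts co-transfected with AR/ARE reporter were plated in charcoal-stripped serum and treated for 48 h with compound from about 0.01 nM to 10 μM. Luciferase activity gave EC50 by 4-parameter logistic fit. Efficacy is expressed as % of maximal stimulation by 10 nM methyltrienolone.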

Setting [3] is: C2C12, read-out: C2C12 % Efficacy.
Setting [4] is: average of n trials, read-out: AR binding Ki.
[5] abbreviates: C2C12 AR/ARE reporter assay, average of n trials, read-out: C2C12 % Efficacy.
[6] abbreviates: C2C12 AR/ARE reporter assay, average of n trials, read-out: C2C12 EC50.

`Cc1ccc2c(c1)c1c(n2Cc2ccccc2C#N)CCC(NC(=O)C(C)C)C1` (stereo not shown) [Example 46] yielded a melting point of 218 to 220 °C. The molecule further had a pKi in data set [1] of 6.86. In addition, the Emax in data set [2] (setting [3]) was 40.5%.

Take `Cc1ccc2c(c1)c1c(n2Cc2cccc(Cl)c2)CCC(NC(=O)C(C)C)C1` (stereo not shown) [Example 48]: the melting point was in the range of 190 to 192 °C. Moreover, the pKi in data set [1] was 8.03. The molecule further had a negative logarithm of the EC50 (pEC50) in data set [2] of 6.94. Further, the Emax in data set [2] (setting [3]) was 69.5%.

As for `Cc1ccc2c(c1)c1c(n2Cc2cccc(C#N)c2)CCC(NC(=O)C(C)C)C1` (stereo not shown) [Example 50], the melting point was 209 to 211 °C. Further, in data set [1], the negative-log Ki (pKi) was 6.82. This molecule had a pEC50 in data set [2] of 6.03. In data set [2] (setting [3]), the Emax worked out at 45.8%.

Molecule `CCOC(=O)c1ccc2c(c1)c1c(n2Cc2cccc(F)c2)CCC(NC(=O)C(C)C)C1` (stereo not shown) [Example 52] showed a melting point of 226 to 228 °C. In addition, the negative-log Ki (pKi) in data set [1] is 8.21. Also, in data set [2], the pEC50 was 8.25. In addition, the Emax in data set [2] (setting [3]) was found to be 73.2%.

For the molecule `CC(C)C(=O)NC1CCc2c(c3cc(S(C)(=O)=O)ccc3n2Cc2cccc(F)c2)C1` (stereo not shown) [Example 53], the melting point was 205 to 207 °C. Further, in data set [1], the pKi was 7.67. Moreover, in data set [2], the negative logarithm of the EC50 (pEC50) is 7.61. For the same molecule, in data set [2] (setting [3]), the Emax came to 107%.

`CC(C)C(=O)NC1CCc2c(c3cc(C(F)(F)F)ccc3n2Cc2cccc(F)c2)C1` (stereo not shown) [Example 55] registered a melting point of 131 to 138 °C. Moreover, in data set [1], the pKi was 7.95. The pEC50 in data set [2] was 8.60. For the same molecule, the Emax in data set [2] (setting [3]) was 82.9%.

Molecule `CC(C)C(=O)NC1CCc2c(c3cccc(Cl)c3n2Cc2cccc(F)c2)C1` (stereo not shown) [Example 57] yielded a melting point of 205 to 207 °C. Besides, in data set [1], the negative logarithm of the Ki (pKi) was 7.60. For the same molecule, the negative logarithm of the EC50 (pEC50) in data set [2] is 6.49. In addition, in data set [2] (setting [3]), the Emax was 36.5%.

In the case of `COc1cc2c3c(n(Cc4cccc(F)c4)c2cc1Cl)CCC(NC(=O)C(C)C)C3` (stereo not shown) [Example 59], the melting point is 212 to 215 °C. The molecule also had a negative logarithm of the Ki (pKi) in data set [1] of 7.23. In data set [2], this molecule gave a pEC50 of 6.62. Besides, the Emax in data set [2] (setting [3]) came out at 39.5%.

In turn, `Cc1cccc2c3c(n(Cc4cccc(F)c4)c12)CCC(NC(=O)C(C)C)C3` (stereo not shown) [Example 60] returned a melting point of 188 to 191 °C. This molecule also gave a negative-log Ki (pKi) in data set [1] of 7.44. The pEC50 in data set [2] was 6.52. Moreover, the Emax in data set [2] (setting [3]) is 74.2%.

Consider `CC(C)C(=O)NC1CCc2c(c3cc(C(N)=O)ccc3n2Cc2cccc(F)c2)C1` (stereo not shown) [Example 63, 9-(3-Fluorobenzyl)-6-isobutyrylamino-6,7,8,9-tetrahydro-5H-carbazole-3-carboxylic acid amide], for which the melting point fell in the range of 192 to 194 °C. The molecule further had a pKi in data set [1] of 7.41. Besides, the pEC50 in data set [2] was 7.17. Also, the Emax in data set [2] (setting [3]) was determined as 113%.

In turn, `COc1ccc2c(c1)c1c(n2Cc2ccccc2)CCC(NC(C)=O)C1` (stereo not shown) [Example 65, N-(9-Benzyl-6-methoxy-2,3-4,9-tetrahydro-1H-carbazol-3-yl)-acetamide] returned a melting point of 184 to 185 °C. Besides, in data set [1] (setting [4]), the negative logarithm of the Ki (pKi) is 7.23. In addition, the Emax in data set [2] (setting [5]) worked out at 87.3%. Also, the negative logarithm of the EC50 (pEC50) in data set [2] (setting [6]) is 7.39.

Regarding `CC(C)C(=O)NC1CCc2c(c3cc(C#N)ccc3n2Cc2ccccc2C(F)(F)F)C1` (stereo not shown) [Example 96, N-[6-Cyano-9-(2-trifluoromethyl-benzyl)-2,3,4,9-tetrahydro-1H-carbazol-3-yl]-isobutyramide], the melting point lay in the range of 222 to 225 °C. The same molecule showed a pKi in data set [1] of 7.83. Moreover, in data set [2], the negative-log EC50 (pEC50) is 6.91. In data set [2] (setting [3]), the Emax was 88%.

In turn, `CC(C)C(=O)NC1CCc2c(c3cc(C#N)ccc3n2Cc2ccccc2OC(F)F)C1` (stereo not shown) [Example 97, N-[6-Cyano-9-(2-difluoromethoxy-benzyl)-2,3,4,9-tetrahydro-1H-carbazol-3-yl]-isobutyramide] registered a melting point of 217 to 219 °C. This molecule also had a negative logarithm of the Ki (pKi) in data set [1] of 8.34. This molecule had a pEC50 in data set [2] of 7.48. The Emax in data set [2] (setting [3]) worked out at 102%.

`CC(C)C(=O)NC1CCc2c(c3cc4c(cc3n2Cc2cccc(F)c2)OCO4)C1` (stereo not shown) [Example 98, N-[9-(3-Fluoro-benzyl)-6,7,8,9-tetrahydro-5H-1,3-dioxa-9-aza-cyclopenta[b]fluoren-6-yl]-isobutyramide]: the melting point lay in the range of 250 to 255 °C. In data set [1], the pKi was 8.15. In data set [2], the pEC50 is 7.39. Moreover, the Emax in data set [2] (setting [3]) was 104%.

`CC(C)C(=O)NC1CCc2c(c3cc4c(cc3n2Cc2cccc(F)c2)OC(F)(F)O4)C1` (stereo not shown) [Example 99, N-[2,2-Difluoro-9-(3-fluoro-benzyl)-6,7,8,9-tetrahydro-5H-1,3-dioxa-9-aza-cyclopenta[b]fluoren-6-yl]-isobutyramide] gave a melting point of 197 to 199 °C. The molecule further had a pKi in data set [1] of 8.21. This molecule showed a pEC50 in data set [2] of 8.03. Besides, in data set [2] (setting [3]), the Emax came out at 69%.

With `CC(C)C(=O)NC1CCc2c(c3cc(C#N)ccc3n2Cc2ccccc2OC(F)(F)F)C1` (stereo not shown) [Example 100, N-[6-Cyano-9-(2-trifluoromethoxy-benzyl)-2,3,4,9-tetrahydro-1H-carbazol-3-yl]-isobutyramide], the melting point was 224 to 225 °C. Further, in data set [1], the negative logarithm of the Ki (pKi) was 8.10. In data set [2], this molecule gave a negative logarithm of the EC50 (pEC50) of 6.90. Further, the Emax in data set [2] (setting [3]) amounted to 87.6%.

`CC(C)C(=O)N[C@H]1CCc2c(c3cc(C#N)ccc3n2Cc2cccc(F)c2)C1` [Example 124, (S)-N-(6-Cyano-9-(3-fluorobenzyl)-2,3,4,9-tetrahydro-1H-carbazol-3-yl)isobutyramide]: the melting point fell in the range of 223 to 225 °C. Besides, the negative logarithm of the Ki (pKi) in data set [1] was 6.71. Moreover, in data set [2], the pEC50 is 5.96. Besides, the Emax in data set [2] (setting [3]) amounted to 49.9%.

With `CC(C)C(=O)NC1CCc2c(c3cc(-c4nnc(N)s4)ccc3n2Cc2cccc(F)c2)C1` (stereo not shown) [Example 125, N-[6-(5-Amino[1,3,4]thiadiazol-2-yl)-9-(3-fluorobenzyl)-2,3,4,9-tetrahydro-1H-carbazol-3-yl]isobutyramide], the melting point was 251 to 254 °C. Moreover, the negative logarithm of the Ki (pKi) in data set [1] is 7.26. This molecule also gave a pEC50 in data set [2] of 7.16. In addition, the Emax in data set [2] (setting [3]) came to 75.8%.

For the molecule `CC(C)C(=O)NC1CCc2c(c3cc(-c4nccs4)ccc3n2Cc2cccc(F)c2)C1` (stereo not shown) [Example 130, N-[9-(3-Fluorobenzyl)-6-thiazol-2-yl-2,3,4,9-tetrahydro-1H-carbazol-3-yl]isobutyramide], the melting point was 221 to 225 °C. The negative logarithm of the Ki (pKi) in data set [1] was 7.87. The molecule further showed a negative-log EC50 (pEC50) in data set [2] of 8.30. For the same molecule, in data set [2] (setting [3]), the Emax was determined as 85.6%.

Turning to `CC(C)C(=O)NC1CCc2c(c3cc(-c4ccccn4)ccc3n2Cc2cccc(F)c2)C1` (stereo not shown) [Example 131, N-[9-(3-Fluorobenzyl)-6-pyridin-2-yl-2,3,4,9-tetrahydro-1H-carbazol-3-yl]isobutyramide], the melting point was in the range of 228 to 230 °C. The molecule also showed a pKi in data set [1] of 6.93. In data set [2], this molecule had a negative logarithm of the EC50 (pEC50) of 7.19. Also, in data set [2] (setting [3]), the Emax amounted to 91.3%.

Take `CC(C)C(=O)NC1CCc2c(c3cc(C#N)ccc3n2Cc2ccc(F)cn2)C1` (stereo not shown) [Example 181, N-[6-Cyano-9-(5-fluoro-pyridin-2-ylmethyl)-2,3,4,9-tetrahydro-1H-carbazol-3-yl]-isobutyramide]: the melting point was 235 to 238 °C (dec.). In data set [1], this molecule showed a negative logarithm of the Ki (pKi) of 7.46. This molecule also gave a negative logarithm of the EC50 (pEC50) in data set [2] of 7.06. The Emax in data set [2] (setting [3]) turned out to be 93.5%.

On to `CC(C)C(=O)NC1CCc2c(c3cc(C#N)ccc3n2Cc2ncccc2F)C1` (stereo not shown) [Example 182, N-[6-Cyano-9-(3-fluoro-pyridin-2-ylmethyl)-2,3,4,9-tetrahydro-1H-carbazol-3-yl]-isobutyramide], for which the melting point lay in the range of 213 to 216 °C. For the same molecule, in data set [1], the pKi is 7.55. In addition, the pEC50 in data set [2] was 6.82. Further, the Emax in data set [2] (setting [3]) was found to be 88.7%.

Molecule `CCOC(=O)Nc1ccc2c(c1)c1c(n2Cc2cccc(F)c2)CC[C@@H](NC(=O)C(C)C)C1` [Example 189, (R)-[9-(3-Fluoro-benzyl)-6-isobutyrylamino-6,7,8,9-tetrahydro-5H-carbazol-3-yl]-carbamic acid ethyl ester] registered a melting point of 169 to 171 °C. For the same molecule, the negative-log Ki (pKi) in data set [1] (setting [4]) is 8.08. The Emax in data set [2] (setting [5]) came to 52.9%. The pEC50 in data set [2] (setting [6]) is 8.92.

Usually pKi stands for the Ki on a negative log10 scale, so that one unit is a factor of ten. What is called melting point is the temperature of the solid-liquid transition. As usually defined, the pEC50 is −log10 of the EC50, conventionally taken in molar units.
